Measured values as given in the supplement of paper PMC10307832.

Assays:
Test in all cases: relative viability (nuclei count vs DMSO), 5 days (fraction); higher = more cells survive
NCI-H1395 = test system: NCI-H1395
Outline: (§1)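 Relative viability was taken as the ratio of nuclei in treated wells to nuclei in vehicle wells. Lung cancer cell lines in 1536-well plates received compounds by pin tool one day after seeding, either one drug alone or a fixed anchor-drug dose plus five library-drug doses (not always all listed) in √10 steps. Nuclei were counted on 4× images after 5 days of treatment, and values are medians of duplicate plates.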

UMC-11 = test system: UMC-11
Outline: as §1

NCI-H1734 = test system: NCI-H1734
Outline: as §1

RERF-LC-KJ = test system: RERF-LC-KJ
Outline: as §1

NCI-H1651 = test system: NCI-H1651
Outline: as §1

HCC-366 = test system: HCC-366
Outline: as §1

PC-3 [JPC-3] = test system: PC-3 [JPC-3]
Outline: as §1

EPLC-272H = test system: EPLC-272H
Outline: as §1

LOU-NH91 = test system: LOU-NH91
Outline: as §1

NCI-H2087 = test system: NCI-H2087
Outline: as §1

ABC-1 = test system: ABC-1
Outline: as §1

LU99A = test system: LU99A
Outline: as §1

NCI-H2228 = test system: NCI-H2228
Outline: as §1

LC-2-ad = test system: LC-2-ad
Outline: as §1

NCI-H1944 = test system: NCI-H1944
Outline: as §1

NCI-H460 = test system: NCI-H460
Outline: as §1

NCI-H1793 = test system: NCI-H1793
Outline: as §1

NCI-H1755 = test system: NCI-H1755
Outline: as §1

HCC-78 = test system: HCC-78
Outline: as §1

NCI-H3122 = test system: NCI-H3122
Outline: as §1

CAL-12T = test system: CAL-12T
Outline: as §1

NCI-H2405 = test system: NCI-H2405
Outline: as §1

CC(C)Oc1cc(Nc2nc(N[C@@H](C)c3ccc(F)cn3)ncc2Cl)n[nH]1 [AZ23] + C[C@]1(O)C[C@@H](c2nc(-c3ccc4ccc(-c5ccccc5)nc4c3)c3c(N)nccn32)C1 [Linsitinib] (partner 1 µM)
relative viability (NCI-H1395; first compound 0.03162 µM): 1.09
relative viability (NCI-H1395; first compound 0.3162 µM): 0.975
relative viability (UMC-11; first compound 0.01 µM): 1.04
relative viability (UMC-11; first compound 0.03162 µM): 1.04
relative viability (UMC-11; first compound 0.3162 µM): 1.01
relative viability (NCI-H1734; first compound 0.01 µM): 0.921
relative viability (NCI-H1734; first compound 0.03162 µM): 0.814
relative viability (NCI-H1734; first compound 0.3162 µM): 0.894
relative viability (RERF-LC-KJ; first compound 0.01 µM): 0.833
relative viability (RERF-LC-KJ; first compound 0.03162 µM): 0.992
relative viability (RERF-LC-KJ; first compound 0.3162 µM): 0.987
relative viability (NCI-H1651; first compound 0.01 µM): 0.691
relative viability (NCI-H1651; first compound 0.03162 µM): 1
relative viability (NCI-H1651; first compound 0.3162 µM): 1.18
relative viability (HCC-366; first compound 0.01 µM): 0.596
relative viability (HCC-366; first compound 0.03162 µM): 0.902
relative viability (HCC-366; first compound 0.3162 µM): 0.56
relative viability (PC-3 [JPC-3]; first compound 0.01 µM): 1.03
relative viability (PC-3 [JPC-3]; first compound 0.03162 µM): 1.04
relative viability (PC-3 [JPC-3]; first compound 0.3162 µM): 0.973
relative viability (EPLC-272H; first compound 0.01 µM): 1.26
relative viability (EPLC-272H; first compound 0.03162 µM): 1.22
relative viability (LOU-NH91; first compound 0.01 µM): 0.85
relative viability (LOU-NH91; first compound 0.03162 µM): 0.966
relative viability (LOU-NH91; first compound 0.3162 µM): 0.917
relative viability (NCI-H2087; first compound 0.01 µM): 1.34
relative viability (NCI-H2087; first compound 0.03162 µM): 1.06
relative viability (NCI-H2087; first compound 0.3162 µM): 0.955
relative viability (ABC-1; first compound 0.01 µM): 0.573
relative viability (ABC-1; first compound 0.03162 µM): 0.916
relative viability (ABC-1; first compound 0.3162 µM): 0.866
relative viability (LU99A; first compound 0.01 µM): 0.534
relative viability (LU99A; first compound 0.03162 µM): 0.579
relative viability (LU99A; first compound 0.3162 µM): 0.593
relative viability (NCI-H2228; first compound 0.01 µM): 0.828
relative viability (NCI-H2228; first compound 0.03162 µM): 0.727
relative viability (NCI-H2228; first compound 0.3162 µM): 0.473
relative viability (LC-2-ad; first compound 0.01 µM): 0.941
relative viability (LC-2-ad; first compound 0.03162 µM): 0.931
relative viability (LC-2-ad; first compound 0.3162 µM): 0.851
relative viability (NCI-H1944; first compound 0.01 µM): 1.12
relative viability (NCI-H1944; first compound 0.03162 µM): 1.18
relative viability (NCI-H1944; first compound 0.3162 µM): 1.26
relative viability (NCI-H460; first compound 0.01 µM): 0.366
relative viability (NCI-H460; first compound 0.03162 µM): 0.933
relative viability (NCI-H460; first compound 0.3162 µM): 0.851
relative viability (NCI-H1793; first compound 0.01 µM): 1.04
relative viability (NCI-H1793; first compound 0.03162 µM): 0.983
relative viability (NCI-H1793; first compound 0.3162 µM): 0.952
relative viability (NCI-H1755; first compound 0.01 µM): 1.13
relative viability (NCI-H1755; first compound 0.03162 µM): 1.03
relative viability (NCI-H1755; first compound 0.3162 µM): 1.06
relative viability (HCC-78; first compound 0.01 µM): 0.495
relative viability (HCC-78; first compound 0.03162 µM): 0.431
relative viability (HCC-78; first compound 0.3162 µM): 0.434
relative viability (NCI-H3122; first compound 0.01 µM): 1.01
relative viability (NCI-H3122; first compound 0.03162 µM): 1.01
relative viability (NCI-H3122; first compound 0.3162 µM): 1.06
relative viability (CAL-12T; first compound 0.01 µM): 0.551
relative viability (CAL-12T; first compound 0.03162 µM): 0.724
relative viability (CAL-12T; first compound 0.3162 µM): 0.861
relative viability (NCI-H2405; first compound 0.01 µM): 0.976
relative viability (NCI-H2405; first compound 0.03162 µM): 0.902
relative viability (NCI-H2405; first compound 0.3162 µM): 0.873
